In test [1] the test system is Ear Edema Caused by Tetradecanoylphorbolacetate. Kind of test: Inhibition of Ear Edema Caused by Tetradecanoylphorbolacetate (I), Table 1. The test is classed as in vivo, CF-1 Mice. The following applies: i.p., 100 mg/kg, 30 min before irritant; ear thickness at 3 h. The source says:
Such inflammatory agents typically include tetradecanoylphorbolacetate, arachidonic acid, xylene, capsaicin, oxazolone, carrageenan and the like. The reverse passive Arthus test offers another measure of the compound's utility in preventing an inflammatory response (Chang et al, Eur. J. Pharm. 69:155-164 (1981)). Test compounds are typically administered intraperitoneally or topically. For intraperitoneal administration, the test compound can be given in dimethyl sulfoxide or in 0.5% methylcellulose 30 minutes prior to administration of the irritant. For topical administration, the test compound can be dissolved in, for example, acetone, ethanol or dimethyl sulfoxide and applied about 15 minutes prior to application of the irritant. Results can be expressed as the percent decrease in swelling in the compound-treated animals as compared to control animals that receive only the irritant.
Inhibition of Ear Edema Caused by Tetradecanoylphorbolacetate (I)
CF-1 Mice, 25-30 g body weight, six animals per group, were used. Test compounds (compounds of Formula I where X is oxygen, R3, R4, A and B are hydrogen and Q is as indicated in Table 1) were administered intraperitoneally (100 mg/kg) or topically as follows. For intraperitoneal administration, the test compound was dissolved in dimethyl sulfoxide or 0.5% methylcellulose and 100 μl was injected 30 minutes prior to irritant (100 mg/kg, i.p.). For topical administration, the test compound was dissolved in either acetone, ethanol or dimethyl sulfoxide and 5 μl (100 μg) applied to the upper surface (1 cm^2) of the ear and an additional 5 μl (100 μg) applied to the lower surface (1 cm^2) of the ear fifteen minutes prior to application of the irritant. A solution of the irritant, tetradecanoylphorbolacetate, 200 μg/ml, was added to the surface of the ear, 5 μl added to the upper surface and 5 μl to the lower surface. After three hours, the thickness of the ear was measured to 0.01 mm by a micrometer with loose drag positioned at the lateral-most edge of the mid-point of the pinna. Data were calculated as the inhibition by the test compound of increased ear thickness compared to control animals receiving only the irritant.

Test [2] deals with Ear Edema Caused by Xylene. Kind of test: Inhibition of Ear Edema Caused by Xylene (II), Table 9. The test is classed as in vivo, CF-1 mice. The conditions noted are these: i.p., 2 h. The method in brief: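 CF-1 mice (25-30 g, six per group) received compound i.p. in DMSO or 0.5% methylcellulose 30 min before xylene was applied to both ear surfaces. Ear thickness was measured by micrometer 2 h later. Values are percent inhibition of the increase in ear thickness versus irritant-only controls.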

Test [3] has as its system Reverse Passive Artus Reaction. Kind of test: Reverse Passive Artus Reaction (II), Table 11. The test is classed as in vivo, Male CD rats. The conditions noted are these: inhibition of blueing; i.p., 100 mg/kg. How it is done:
Reverse Passive Artus Reaction (II) Male CD rats weighing between 200 and 250 g were used. […] The animals were anesthetized inhalationally with isoflurane and then injected through the penile vein with 1 mL of a solution of 2.5 mg of Evan's blue dye and 5.0 mg of human serum albumin in 1 mL of saline. This treatment was followed immediately by intracutaneous injections of 0.03 mL of anti-human albumin diluted to contain 3.65 mg of antibody at 3 sites along the midline back. Anesthesia was terminated and after three hours, the animals were sacrificed. The skin was removed and the blue stained areas cut out. The skin patches were soaked overnight in stoppered tubes containing 1 mL of 1 N potassium hydroxide at 37° C. Then 9 mL of a mixture of five parts of a 0.6 N phosphoric acid and thirteen parts of acetone were added to the tubes. The tube contents were agitated and centrifuged, and the absorbance measured at 620 nm. The data were calculated as inhibition of blueing by test compound compared to control animals receiving only antigen and antibody.

Test [4] relates to Ear Edema Caused By Tetradecanoylphorbol Acetate. Kind of test: Inhibition of Ear Edema Caused by Tetradecanoylphorbol Acetate (II), Table 7. The conditions noted are these: i.p., 3 h. The test is classed as in vivo, CF-1 Mice.
In test [5] the test system is Ear Edema Caused by Arachidonic Acid. Kind of test: Inhibition of Ear Edema Caused by Arachidonic Acid (II), Table 8. The test is classed as in vivo, CF-1 mice. The conditions noted are these: i.p., sixty minutes. The method in brief: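 CF-1 mice (25-30 g, six/group) dosed intraperitoneally with compound in DMSO or 0.5% methylcellulose 30 min before topical arachidonic acid (100 mg/mL in ethanol, both ear surfaces).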

Test [6] concerns Ear Edema Caused by Oxazolone. Kind of test: Inhibition of Ear Edema Caused by Oxazolone (II), Table 10. The conditions noted are these: i.p., 24 h. The test is classed as in vivo, CF-1 mice.

Take `NCCCC[C@H](N)C(=O)O` [L-Lysine]: the “% Inhibition Intraperitoneal” value in test [1] was 14%.
In the case of `Cc1ccc2c(c1)C(COC(=O)N[C@@H](CC(C)C)C(=O)O)c1cc(C)ccc1-2` [NPC 15669, N-{[9H-(2,7-Dimethylfluoren-9-yl)methoxy]-carbonyl}-L-leucine], the “% Inhibition” value in test [2] (10 mg/kg) was 12%; in test [2] (30 mg/kg), 22%; in test [2] (100 mg/kg) it was 60%. The “% Inhibition Intraperitoneal” value in test [3] came out at 60%; in test [4] (10 mg/kg) it was 43%; in test [4] (30 mg/kg), 27%; in test [4] (100 mg/kg), 133%; in test [5] (10 mg/kg) it was 12%; in test [5] (30 mg/kg), 22%. The “% Inhibition Intraperitoneal” value in test [5] (100 mg/kg) was 60%; in test [6] (10 mg/kg), -40%; in test [6] (30 mg/kg) it was 84%; in test [6] (100 mg/kg), 84%.
For `Cc1ccc2c(c1)C(CCC(=O)N[C@@H](CC(C)C)C(=O)O)c1ccccc1-2` (stereo partly drawn) [NPC 15671, N-{9H-[3-(2-Methylfluoren-9-yl)propionyl]}-L-leucine], the “% Inhibition” value in test [2] (10 mg/kg) came to 6%; in test [2] (30 mg/kg), 10%; in test [2] (100 mg/kg), 18%. The “% Inhibition Intraperitoneal” value in test [3] is on record as 13%; in test [4] (10 mg/kg) it was 41%; in test [4] (30 mg/kg), 31%; in test [4] (100 mg/kg), 66%; in test [5] (10 mg/kg), 40%; in test [5] (30 mg/kg) it was 19%. Moreover, the “% Inhibition Intraperitoneal” value in test [5] (100 mg/kg) came to 56%; in test [6] (10 mg/kg), 5%; in test [6] (30 mg/kg), 20%; in test [6] (100 mg/kg), 69%.
For the molecule `COCc1cccc2c1C(COC(=O)N[C@@H](CC(C)C)C(=O)O)c1ccccc1-2` (stereo partly drawn) [NPC 15673, N-{[9H-(1-Methoxymethylfluoren-9-yl)methoxy]carbonyl}-L-leucine], the “% Inhibition” value in test [2] (10 mg/kg) was determined as 20%; in test [2] (30 mg/kg) it was 26%; in test [2] (100 mg/kg), 29%. For the same molecule, the “% Inhibition Intraperitoneal” value is 46% in test [3]; 0% in test [4] (10 mg/kg); 33% in test [4] (30 mg/kg); 60% in test [4] (100 mg/kg); 24% in test [5] (10 mg/kg); 27% in test [5] (30 mg/kg). Further, the “% Inhibition Intraperitoneal” value in test [5] (100 mg/kg) came out at 58%; in test [6] (10 mg/kg), 0%; in test [6] (30 mg/kg) it was 12%; in test [6] (100 mg/kg), 18%.
In the case of `CC(C)(C)C[C@H](NC(=O)OCC1c2ccccc2-c2ccccc21)C(=O)O` [NPC 15676, N-[(9H-Fluoren-9-ylmethoxy)carbonyl]-L--neopentylglycine quarter hydrate], the “% Inhibition” value in test [2] (10 mg/kg) was 26%; in test [2] (30 mg/kg) it was 12%; in test [2] (100 mg/kg), 44%. Moreover, the “% Inhibition Intraperitoneal” value in test [3] came out at 82%; in test [4] (10 mg/kg), 0%; in test [4] (30 mg/kg) it was 20%; in test [4] (100 mg/kg), 16%; in test [5] (10 mg/kg) it was 20%; in test [5] (30 mg/kg) it was 44%. The “% Inhibition Intraperitoneal” value in test [5] (100 mg/kg) is 79%; in test [6] (10 mg/kg), 0%; in test [6] (30 mg/kg) it was 4%; in test [6] (100 mg/kg), 50%.
On to `CC(C)(C)[C@H](NC(=O)CCC1c2ccccc2-c2ccccc21)C(=O)O` [NPC 15685, N-[3-(9H-Fluoren-9-yl)propionyl]-L-tert-leucine, quarter hydrate], for which the figures for the “% Inhibition” value in test [2] (10 mg/kg), in test [2] (30 mg/kg) and in test [2] (100 mg/kg) were 5%, 23% and 18%, respectively. In addition, the “% Inhibition Intraperitoneal” value in test [3] came to 42%; in test [4] (10 mg/kg) it was 0%; in test [4] (30 mg/kg), 16%; in test [4] (100 mg/kg) it was 67%; in test [5] (10 mg/kg) it was 44%; in test [5] (30 mg/kg), 61%. Also, the “% Inhibition Intraperitoneal” value turned out to be 69% in test [5] (100 mg/kg), 0% in test [6] (10 mg/kg), 30% in test [6] (30 mg/kg) and 30% in test [6] (100 mg/kg).
On to `Cc1cccc2c1C(CCC(=O)N[C@H](C(=O)O)C(C)(C)C)c1ccccc1-2` (stereo partly drawn) [NPC 15885, N-{9H-[3-(1-Methylfluoren-9-yl)propionyl]}-L-tert-leucine, quarter hydrate], for which the “% Inhibition” value amounted to 39% in test [2] (10 mg/kg), 49% in test [2] (30 mg/kg) and 48% in test [2] (100 mg/kg). Moreover, the “% Inhibition Intraperitoneal” value in test [3] was determined as 49%; in test [4] (10 mg/kg) it was 70%; in test [4] (30 mg/kg) it was 77%; in test [4] (100 mg/kg), 80%; in test [5] (10 mg/kg) it was 52%; in test [5] (30 mg/kg), 71%. The “% Inhibition Intraperitoneal” value in test [5] (100 mg/kg) is listed as 79%; in test [6] (10 mg/kg), 1%; in test [6] (30 mg/kg) it was 8%; in test [6] (100 mg/kg) it was 36%.
On to `CC(C)(SCc1ccccc1)[C@@H](NC(=O)OCC1c2ccccc2-c2ccccc21)C(=O)O` [NPC 15953, S-Benzyl-β,β-dimethyl-N-[9H-(fluoren-9-ylmethoxy)carbonyl]-D-cystein], for which the entries for the “% Inhibition” value in test [2] (10 mg/kg), in test [2] (30 mg/kg) and in test [2] (100 mg/kg) were 46%, 66% and 60%, respectively. Moreover, the “% Inhibition Intraperitoneal” value in test [3] was 68%; in test [4] (10 mg/kg) it was 64%; in test [4] (30 mg/kg) it was 87%; in test [4] (100 mg/kg) it was 95%; in test [5] (10 mg/kg) it was 46%; in test [5] (30 mg/kg), 66%. For the same molecule, the “% Inhibition Intraperitoneal” value in test [5] (100 mg/kg) is recorded as 60%; in test [6] (10 mg/kg), 0%; in test [6] (30 mg/kg), 28%; in test [6] (100 mg/kg), 79%.

The % Inhibition is how much of the control response was suppressed. Lower therefore signals little suppression.

Values taken from patent publication US5079260A, “Method for treating inflammation and compounds and compositions suitable for use therein” (Nova Pharmaceutical Corporation, priority 1990, dated 1992).
